According to patent EP3282019A1, “[…] TREATMENT OF CANCER, IN […] L[…]” (priority 2016, dated 2018):

Experiments:
[1] = system: NOTCH and apoptosis related genes; assay: semiquantitative RT-PCR of NOTCH and apoptosis related genes in CLL cells; type: cell-based, human; conditions: for NOTCH3 expression / NR4A1 expression: Fig 3A, right panel
Excerpt: PCR, RT-PCR, and Western blot analysis: Total RNA was extracted using the Trizol isolation system (Invitrogen/Life Technologies, Paisley, UK). Genomic DNA (gDNA) was extracted using the Wizard Genomic DNA extraction kit from Promega. M-MLV reverse transcriptase and GoTaq PCR kits (Promega, WI, USA) were used for semiquantitative reverse transcriptase polymerase chain reactions (RT-PCR).
PCR and RT-PCR techniques (long range PCR using genomic DNA, semiquantitative RT-PCR), and western blotting (Modular Mini-Protean II system from Bio Rad) were used routinely according to standard protocols.

CLL cells [2] = assay: FACS detection of apoptosis (AnnexinV / propidium iodide) in CLL cells, PMA activation model; type: cell-based, human
Procedure: Cell lines and culture: CLL cells were cultured in RPMI 1640 medium containing 10% fetal calf serum, 100U/ml penicillin and […] streptomycin at 37 °C, 7.5% CO2 in humidified atmosphere. The ex vivo CLL microenvironment model based on using primary human bone marrow stromal cells in co-culture with CLL cells was applied as previously described and was used for analysing the effect of gliotoxin, RO4929097, and blocking antibodies on CLL cells in a milieu resembling the situation in vivo (Shehata et al., 2004). The PMA activation model was used to analyse the function of PKC stimulation on the regulation of NOTCH2/NOTCH3 signalling in CLL cells.
Flow cytometry (FACS) and detection of cell viability: Antibodies (CD5, CD19, CD20, CD23, CD49d, CD37, CD52, and 7-Aminoactinomycin D (7-AAD) were purchased from Becton Dickinson (San Jose, CA). Species- and isotype-matched irrelevant antibodies are used as controls. Flow cytometry was performed on a FACScan® using CellQuest Pro software version 5.2.1 (Becton Dickinson, San Jose, CA). Ultra high speed cell sorting was used to isolate CD5+/CD19+ CLL cells from normal B-cells (CD19+/CD5-) and T-cells (CD3+). AnnexinV, propidium iodide, and 7-AAD staining was performed to estimate the percentages of cells undergoing apoptosis. The overall effect on cell viability was calculated as the sum of early apoptotic (AnnexinV single positive; Ax+/PI-) and late apoptotic/necrotic (AnnexinV/propidium iodide double positive; Ax+/PI+) cells using a kit from Bender Med. Systems Inc. (Vienna, AT). Cell viability was evaluated by a nonisotopic MTT (3-(4,5-dimethylthiazolyl-2)-2,5-diphenyltetrazolium bromide) assay (Ez4U) in 96-well culture plates as described by the manufacturer (Biomedica, AT).

[3] = system: NOTCH2 (N2^IC / Mastermind / CSL) transcription factor complex; assay: EMSA of DNA-bound NOTCH2 complexes in nuclear extracts of CLL cells; type: cell-based, human
Procedure: Preparation of nuclear extracts and EMSA: 3x10^7 cells were lysed in 1ml hypotonic buffer (10mM HEPES, pH 7.9; 1.5mM MgCl2; 10mM KCL) containing 0.15% NP-40 at 4°C for 10 min. The nuclear proteins were extracted from the nuclear fraction by resuspending the nuclei in 100µl extraction buffer (300mM KCl; 1.5mM MgCl2; 20mM HEPES pH 7.9; 0.2mM EDTA; 25% Glycerin) at 4°C for 20 min with constant agitation. The CSL site spanning EMSA probe was derived from the CD23a promoter (5'-[…]-3' (SEQ ID NO: 40) annealed with the reverse complementary strand). The N1^IC (bTAN 20) and N2^IC (C651.6DbHN) antibodies was obtained from the Developmental Studies Hybridoma Bank (University of Iowa, Department of Biological Science, Iowa City, IA). EMSA was performed essentially as described (Hubmann et al., 2010)

CLL cells [4] = assay: ex vivo CLL microenvironment model (co-culture with primary human bone marrow stromal cells)
[5] = RO4929097 0.5µM, PMA-activated CLL cells expressing a GSI resistant form of nuclear NOTCH2
[6] = chronic stimulation with PMA, after 3 days, CLL cells

CC(C)(C(=O)NCC(F)(F)C(F)(F)F)C(=O)N[C@@H]1C(=O)Nc2ccccc2-c2ccccc21 [RO4929097] was tested, and the NOTCH3 expression [1, 5] was “inhibits”, the NR4A1 expression [1, 5] was “inhibits” and the gliotoxin mediated apoptosis (CLL cells [2]; RO4929097 0.5µM with gliotoxin 0.2µM, PMA-activated CLL cells expressing a GSI resistant form of nuclear NOTCH2, Fig 3B) was “counteracts”. For the same compound, the spontaneous apoptosis (CLL cells [2]; RO4929097 0.5µM, PMA-activated CLL cells expressing a GSI resistant form of nuclear NOTCH2, Fig 3B) was “counteracts”.

With C[C@H](NC(=O)Cc1cc(F)cc(F)c1)C(=O)N[C@H](C(=O)OC(C)(C)C)c1ccccc1 [DAPT] the “nuclear NOTCH2 activity” value ([3]; 5µM DAPT, majority of CLL cases, Fig. 1A and B) was “no effect” and the “sensitivity of DNA-bound NOTCH2 complexes to GSI” value ([3]; majority of CLL cases, Fig. 2B) was “less sensitive/resistant”.

CCCCCCCCCCCCCC(=O)O[C@@H]1[C@@H](C)[C@@]2(O)[C@@H](C=C(CO)C[C@]3(O)C(=O)C(C)=C[C@@H]23)[C@@H]2C(C)(C)[C@]12OC(C)=O [PMA] was tested, and the “expression of all NOTCH ligands” value ([1]; PMA-activated CLL cells, Fig 2C, lane 4) was “downregulation”, the NOTCH3 expression [1, 6] was “upregulation” and the NR4A1 expression [1, 6] was “upregulation”.

CN1C(=O)[C@]23CC4=CC=C[C@H](O)[C@H]4N2C(=O)[C@@]1(CO)SS3 [gliotoxin] was tested, and the NOTCH2 signalling [1] was “rapidly inhibited”, the “NOTCH3 mRNA expression” value [1] was “upregulated” and the “NR4A1 mRNA expression” value [1] was “upregulated”. For the same compound, the “co-expression of NOTCH3 and its ligand JAG2 (unstimulated cells) or DLL1 (PMA activated cells)” value [1] was “induced co-expression”, the “apoptosis in CLL cells” value (CLL cells [2]) was “efficiently induced apoptosis” and the “protective effect of PMA on CLL cells” value (CLL cells [2]) was “reversed the protective effect of PMA”. For the same compound, the “NOTCH2 at the transcription factor level” value [3] was “inhibits NOTCH2 at the transcription factor level”, the NOTCH2 transactivation [3] was “potent NOTCH2 transactivation inhibitor” and the “assembly of the ternary NOTCH2 (N2^IC / Mastermind / CSL) transcription factor complex on DNA” value [3] was “interferes with the assembly”. The “anti-apoptotic effect of bone marrow stromal cells” value (CLL cells [4]) was “could also overcome the anti-apoptotic effect”.
